The values that follow come from US20230270826A1, “ANTIVIRAL USE OF L[…] GEFITINIB” (priority 2020, published 2023).

Assay [1] deals with interleukin 6 (IL-6). Nature of the assay: Cytokine release assay (IL-6) in PBMC stimulated with SARS-CoV2 proteins. It counts as cell-based, human.
For assay [2], the system named is genes from the COVID-19 model. Nature of the assay: Transcription fingerprinting by 3' RNA-sequencing of nucleocapsid-stimulated cells. It counts as cell-based, human.
Where [3] appears, read: compound effect vs nucleocapsid stimulation.

For `COc1cc2ncnc(Nc3ccc(F)c(Cl)c3)c2cc1OCCCN1CCOCC1` [gefitinib], in assay [1] (nucleocapsid (N) stimulation vs Mock, FIG. 1), the “Immune modulation of interleukin 6 (IL-6) release” value is “stronger than by dexamethasone (DEX) alone”. The “Expression of genes up- or down-regulated 2-fold by nucleocapsid (N) vs Mock” value in assay [2] (N+compound vs N, FIG. 4) is listed as ““normalized” in their expression”. Further, the “Regulation of genes up-regulated at time 4 h N vs Mock” value in assay [2] (N-compound vs N, 4 h, FIG. 4 boxplots) is “strongly down-regulated”. In assay [2] (setting [3]), the “Regulation of genes downregulated in nucleocapsid (N) stimulation vs Mock” value is reported as “upregulated” and the “Regulation of genes upregulated in nucleocapsid (N) stimulation vs Mock” value is given as “downregulated”.
In the case of `Nc1cccc2c1C(=O)N(C1CCC(=O)NC1=O)C2=O` (stereo not drawn) [pomalidomide], the “Immune modulation of interleukin 6 (IL-6) release” value in assay [1] (spike (S) or spike trimer (St) stimulation vs Mock, GEF 0.5 μM and 5 μM, POM 100 ng/ml, FIG. 3) is “does not show immune modulation”.
